The results in this text go back to patent US10479784B2, “Substituted pyrazin-2-amines as inhibitors of ATR kinase” (Vertex Pharmaceuticals Incorporated, priority 2008, dated 2019).

The assay deals with full-length ATR (Homo sapiens (Human), UniProt Q13535). Kind of assay: ATR Inhibition Assay (radioactive-phosphate incorporation). As to conditions: read-out: ATR Ki. Type of assay: biochemical. In short, it runs like this:
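Full-length human ATR (5 nM) was assayed at 25 °C in 50 mM Tris/HCl pH 7.5, 10 mM MgCl2, 1 mM DTT, with 10 μM [γ-33P]ATP and 800 μM peptide, after 10-min compound preincubation. Reactions were stopped after 24 h, captured on phosphocellulose and counted; Ki(app) came from non-linear regression of initial rates.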

Each structure is given as a SMILES string.

full-length ATR, sequence (Q13535 whole entry): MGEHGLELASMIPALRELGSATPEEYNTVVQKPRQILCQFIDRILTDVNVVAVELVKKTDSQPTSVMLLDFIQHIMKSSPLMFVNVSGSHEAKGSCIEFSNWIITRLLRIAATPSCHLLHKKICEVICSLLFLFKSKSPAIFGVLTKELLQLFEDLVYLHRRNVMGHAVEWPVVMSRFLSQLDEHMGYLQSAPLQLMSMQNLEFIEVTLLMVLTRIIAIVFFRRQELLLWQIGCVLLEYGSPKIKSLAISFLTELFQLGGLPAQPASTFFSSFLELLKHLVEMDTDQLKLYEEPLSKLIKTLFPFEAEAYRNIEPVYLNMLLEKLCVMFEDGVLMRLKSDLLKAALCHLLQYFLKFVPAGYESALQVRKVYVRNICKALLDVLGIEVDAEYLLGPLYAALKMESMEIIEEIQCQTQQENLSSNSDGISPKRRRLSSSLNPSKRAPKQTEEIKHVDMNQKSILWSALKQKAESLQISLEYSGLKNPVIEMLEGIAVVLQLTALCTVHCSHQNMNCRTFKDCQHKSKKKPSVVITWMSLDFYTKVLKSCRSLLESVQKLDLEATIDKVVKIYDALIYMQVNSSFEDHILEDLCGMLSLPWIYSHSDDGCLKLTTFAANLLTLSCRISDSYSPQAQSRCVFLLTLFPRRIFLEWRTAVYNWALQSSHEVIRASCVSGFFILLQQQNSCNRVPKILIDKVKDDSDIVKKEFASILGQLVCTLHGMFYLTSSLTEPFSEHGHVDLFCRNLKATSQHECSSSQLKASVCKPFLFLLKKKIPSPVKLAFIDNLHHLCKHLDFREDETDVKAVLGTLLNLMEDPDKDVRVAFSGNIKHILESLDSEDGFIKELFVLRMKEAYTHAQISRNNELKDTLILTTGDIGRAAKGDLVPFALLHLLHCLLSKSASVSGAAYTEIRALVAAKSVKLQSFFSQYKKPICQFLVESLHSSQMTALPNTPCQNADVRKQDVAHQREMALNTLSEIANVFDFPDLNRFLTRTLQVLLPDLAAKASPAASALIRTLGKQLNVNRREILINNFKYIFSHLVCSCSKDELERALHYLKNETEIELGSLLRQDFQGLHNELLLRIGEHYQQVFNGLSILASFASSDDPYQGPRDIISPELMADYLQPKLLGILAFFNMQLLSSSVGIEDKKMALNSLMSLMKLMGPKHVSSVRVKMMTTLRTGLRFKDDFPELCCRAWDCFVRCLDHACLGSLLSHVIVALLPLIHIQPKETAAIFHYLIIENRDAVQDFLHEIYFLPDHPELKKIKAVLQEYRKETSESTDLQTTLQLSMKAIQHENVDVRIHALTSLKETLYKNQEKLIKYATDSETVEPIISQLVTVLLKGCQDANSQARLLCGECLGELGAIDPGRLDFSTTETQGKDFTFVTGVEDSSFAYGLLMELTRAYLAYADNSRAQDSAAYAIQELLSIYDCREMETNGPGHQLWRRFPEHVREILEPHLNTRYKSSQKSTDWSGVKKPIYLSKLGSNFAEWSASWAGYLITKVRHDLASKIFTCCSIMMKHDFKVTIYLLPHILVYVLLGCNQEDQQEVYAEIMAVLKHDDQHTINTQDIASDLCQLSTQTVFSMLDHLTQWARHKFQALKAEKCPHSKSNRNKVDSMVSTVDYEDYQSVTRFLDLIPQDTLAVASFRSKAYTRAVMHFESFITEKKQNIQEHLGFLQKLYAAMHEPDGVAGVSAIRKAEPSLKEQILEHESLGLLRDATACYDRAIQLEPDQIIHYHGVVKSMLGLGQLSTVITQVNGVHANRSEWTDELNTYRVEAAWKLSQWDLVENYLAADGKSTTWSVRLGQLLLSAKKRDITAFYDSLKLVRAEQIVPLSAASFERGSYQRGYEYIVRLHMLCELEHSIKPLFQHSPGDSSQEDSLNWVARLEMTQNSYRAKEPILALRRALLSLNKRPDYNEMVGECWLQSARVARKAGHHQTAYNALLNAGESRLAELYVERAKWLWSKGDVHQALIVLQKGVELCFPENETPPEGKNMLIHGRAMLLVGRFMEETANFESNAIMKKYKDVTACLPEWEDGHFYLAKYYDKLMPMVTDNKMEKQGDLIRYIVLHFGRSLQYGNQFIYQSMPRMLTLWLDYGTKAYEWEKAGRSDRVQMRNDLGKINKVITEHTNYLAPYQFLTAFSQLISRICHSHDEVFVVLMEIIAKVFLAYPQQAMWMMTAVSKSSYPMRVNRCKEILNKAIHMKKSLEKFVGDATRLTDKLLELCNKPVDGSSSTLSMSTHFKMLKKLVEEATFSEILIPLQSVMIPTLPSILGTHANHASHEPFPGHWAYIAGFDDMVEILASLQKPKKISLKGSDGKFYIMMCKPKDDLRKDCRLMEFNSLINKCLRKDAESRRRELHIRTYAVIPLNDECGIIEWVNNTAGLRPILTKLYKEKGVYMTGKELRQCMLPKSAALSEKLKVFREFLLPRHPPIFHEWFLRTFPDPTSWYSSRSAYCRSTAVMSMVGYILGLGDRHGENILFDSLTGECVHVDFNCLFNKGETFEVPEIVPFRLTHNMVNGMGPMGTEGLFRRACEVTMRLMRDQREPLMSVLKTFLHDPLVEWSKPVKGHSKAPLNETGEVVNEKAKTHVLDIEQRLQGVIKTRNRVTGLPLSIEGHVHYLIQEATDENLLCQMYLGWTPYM

Usually Ki stands for a dissociation constant, usually derived from enzyme kinetics or from competition with a known ligand. Turning to `Nc1ncc(-c2cccc(C(F)(F)F)c2)nc1-c1nnc(-c2ccccc2)o1` [IA-96, 3-(5-phenyl-1,3,4-oxadiazol-2-yl)-5-[3-(trifluoromethyl)phenyl]pyrazin-2-amine], the Ki fell in the range of 0.1 to 5 µM.
For the compound `CC(C)S(=O)(=O)c1ccc(-c2cnc(N)c(-c3nnc(NC(=O)[C@@H]4CCCN4)o3)n2)cc1` [IA-217, (2S)—N-[5-[3-amino-6-(4-isopropylsulfonylphenyl)pyrazin-2-yl]-1,3,4-oxadiazol-2-yl]pyrrolidine-2-carboxamide], the Ki lay in the range of 0.1 to 5 µM.
The result for `Nc1ncc(-c2cccc(C(=O)NC3CCOCC3)c2)nc1C(=O)Nc1ccccc1` [Compound I-66, 3-amino-N-phenyl-6-(3-(tetrahydro-2H-pyran-4-ylcarbamoyl)phenyl) pyrazine-2-carboxamide] reads 0.01 to 0.1 µM; that for `CNCc1ccc(-c2nnc(-c3nc(-c4ccc(S(=O)(=O)C(C)C)cc4)cnc3N)o2)c(OC)c1` [IA-171, 5-(4-isopropylsulfonylphenyl)-3-[5-[2-methoxy-4-(methylaminomethyl)phenyl]-1,3,4-oxadiazol-2-yl]pyrazin-2-amine], at most 0.01 µM.
Take `Nc1ncc(-c2ccc(C(=O)N3CCCNCC3)cc2)nc1C(=O)Nc1cc2ccccc2[nH]1` [Compound V-6]: the Ki fell in the range of 0.1 to 5 µM.
The result for `CNCc1ccc(-c2nnc(-c3nc(-c4ccc(S(=O)(=O)C(C)C)cc4)cnc3N)o2)cc1F` [IA-336, 3-[5-[3-fluoro-4-(methylaminomethyl)phenyl]-1,3,4-oxadiazol-2-yl]-5-(4-isopropylsulfonylphenyl)pyrazin-2-amine] reads at most 0.01 µM; that for `COc1ccccc1NC(=O)c1nc(-c2cccs2)cnc1N` [Compound I-35, 3-amino-N-(2-methoxyphenyl)-6-(thiophen-2-yl)pyrazine-2-carboxamide], 0.01 to 0.1 µM.
As for `CC(C)S(=O)(=O)c1ccc(-c2cnc(N)c(-c3nnc(CN)o3)n2)cc1` [IA-168, 3-[5-(aminomethyl)-1,3,4-oxadiazol-2-yl]-5-(4-isopropylsulfonylphenyl)pyrazin-2-amine], the inhibition constant (Ki) lay within 0.1 to 5 µM.
On to `Nc1ncc(-c2cccc(C(=O)NCCN3CCCC3)c2)nc1C(=O)Nc1ccccc1` [Compound I-54, 3-amino-N-phenyl-6-(3-(2-(pyrrolidin-1-yl)ethylcarbamoyl)phenyl)pyrazine-2-carboxamide], for which the inhibition constant Ki lay in the range of 0.1 to 5 µM.
In the case of `Cc1ccsc1-c1nnc(-c2nc(-c3ccc(S(=O)(=O)C(C)C)cc3)cnc2N)o1` [IA-276, 5-(4-isopropylsulfonylphenyl)-3-[5-(3-methyl-2-thienyl)-1,3,4-oxadiazol-2-yl]pyrazin-2-amine] it was at most 0.01 µM.
As for `CCOC(=O)N1CCN(C(=O)c2ccc(-c3cnc(N)c(-c4nnc(-c5ccccc5)o4)n3)cc2)CC1` [IA-11], the inhibition constant (Ki) lay within 0.01 to 0.1 µM.
In the case of `CN(C)C1CCN(C(=O)c2ccc(-c3cnc(N)c(-c4nnc(-c5ccccc5)o4)n3)cc2F)CC1` [IA-4] it was at most 0.01 µM; in that of `CC(C)S(=O)(=O)c1ccc(-c2cnc(N)c(-c3nnc(C(=O)N4CCC(N)C4)o3)n2)cc1` (stereo not shown) [IA-133, [5-[3-amino-6-(4-isopropylsulfonylphenyl)pyrazin-2-yl]-1,3,4-oxadiazol-2-yl]-(3-aminopyrrolidin-1-yl)methanone], 0.1 to 5 µM; in that of `CCS(=O)(=O)c1ccc(-c2cnc(N)c(-c3nnc(-c4ccc(CNC)cc4)o3)n2)cc1` [IA-307, 5-(4-(ethylsulfonyl)phenyl)-3-(5-(4-((methylamino)methyl)phenyl)-1,3,4-oxadiazol-2-yl)pyrazin-2-amine], at most 0.01 µM.
The result for `Nc1ncc(-c2ccc3ncccc3c2)nc1-c1nnc(-c2ccccc2)o1` [IA-63] reads 0.01 to 0.1 µM; that for `CC(O)c1cccc(-c2nnc(-c3nc(-c4ccc(C(=O)N(C)C)cc4)cnc3N)o2)c1` (stereo not shown) [IA-275, 4-[5-amino-6-[5-[3-(1-hydroxyethyl)phenyl]-1,3,4-oxadiazol-2-yl]pyrazin-2-yl]-N,N-dimethyl-benzamide], 0.01 to 0.1 µM.
